In PubChem BioAssay (NCI):
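Step 1: Grow cells in 96-well plates. Step 2: Expose to compound for 48 hours at 5 concentrations. Step 3: Interpolate endpoints linearly; if unreached, use highest concentration. TGI: concentration producing complete growth inhibition.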

What was measured:
Experiment in all cases: NCI tumour cell line growth inhibition, 48 h
RPMI-8226 leukemia = test system: RPMI-8226 leukemia
RXF 393 renal = test system: RXF 393 renal
K-562 leukemia = test system: K-562 leukemia
SNB-19 CNS = test system: SNB-19 CNS
CCRF-CEM leukemia = test system: CCRF-CEM leukemia
IGROV1 ovarian = test system: IGROV1 ovarian
MDA-MB-435 = test system: MDA-MB-435
A498 renal = test system: A498 renal
SK-MEL-28 melanoma = test system: SK-MEL-28 melanoma
SR leukemia = test system: SR leukemia
U251 CNS = test system: U251 CNS
SF-268 CNS = test system: SF-268 CNS
SF-295 CNS = test system: SF-295 CNS
ACHN renal = test system: ACHN renal
TK-10 renal = test system: TK-10 renal
OVCAR-5 ovarian = test system: OVCAR-5 ovarian
HOP-92 NSCLC = test system: HOP-92 NSCLC
HS 578T breast = test system: HS 578T breast
MDA-MB-231 breast = test system: MDA-MB-231 breast
SNB-75 CNS = test system: SNB-75 CNS
CAKI-1 renal = test system: CAKI-1 renal
SK-MEL-5 melanoma = test system: SK-MEL-5 melanoma
DU-145 prostate = test system: DU-145 prostate
HCT-15 colon = test system: HCT-15 colon
SK-OV-3 ovarian = test system: SK-OV-3 ovarian
T-47D breast = test system: T-47D breast
HOP-62 NSCLC = test system: HOP-62 NSCLC
NCI/ADR-RES ovarian = test system: NCI/ADR-RES ovarian
NCI-H522 lung = test system: NCI-H522 lung
HCT-116 colon = test system: HCT-116 colon
SN12C renal = test system: SN12C renal
BT-549 breast = test system: BT-549 breast
MALME-3M melanoma = test system: MALME-3M melanoma
MCF7 breast = test system: MCF7 breast
NCI-H23 lung = test system: NCI-H23 lung
COLO 205 colon = test system: COLO 205 colon
SK-MEL-2 melanoma = test system: SK-MEL-2 melanoma
HL-60(TB) leukemia = test system: HL-60(TB) leukemia
HT29 colon = test system: HT29 colon
OVCAR-4 ovarian = test system: OVCAR-4 ovarian
MDA-N = test system: MDA-N
OVCAR-8 ovarian = test system: OVCAR-8 ovarian
KM12 colon = test system: KM12 colon
PC-3 prostate = test system: PC-3 prostate
OVCAR-3 ovarian = test system: OVCAR-3 ovarian
EKVX NSCLC = test system: EKVX NSCLC
NCI-H460 lung = test system: NCI-H460 lung
UACC-62 melanoma = test system: UACC-62 melanoma
SW-620 colon = test system: SW-620 colon
UO-31 renal = test system: UO-31 renal
UACC-257 melanoma = test system: UACC-257 melanoma
MOLT-4 leukemia = test system: MOLT-4 leukemia
LOX IMVI melanoma = test system: LOX IMVI melanoma
A549 NSCLC = test system: A549 NSCLC
786-0 renal = test system: 786-0 renal
M14 melanoma = test system: M14 melanoma
HCC-2998 colon = test system: HCC-2998 colon
SF-539 CNS = test system: SF-539 CNS
NCI-H226 lung = test system: NCI-H226 lung

Measured: TGI

c1ccc(NCCSc2nc3ccccc3s2)cc1
82.4 µM: MOLT-4 leukemia
77 µM: UACC-257 melanoma
31.7 µM: CCRF-CEM leukemia
41.8 µM: COLO 205 colon
77.4 µM: TK-10 renal
43 µM: HCT-15 colon
42.3 µM: SK-MEL-5 melanoma
not listed: HCC-2998 colon | SF-539 CNS | NCI-H226 lung
> 100 µM: all other assays above

NCCCNCCCCN1CCOC1=O
not listed: RXF 393 renal | HOP-92 NSCLC | OVCAR-4 ovarian
> 100 µM: all other assays above
